Read-outs that look alike come from different tables or passages of the source. Non-standard residues stand in square brackets, D forms with d. Residues, ends and D or L forms follow the SMILES beside them. No end group written: not given here. Orn = NCCC[C@H](N)C(=O)O
How the values were obtained:
PKG1α (h) = molecular target: T1, PKG1α (h) (Homo sapiens, UniProt Q13976); assay: PKG1α kinase activity assay, cell free; assay type: biochemical
T1 construct: purchased Eurofins Pharma Discovery Services UK Ltd (contract assay service)
T1 sequence (Q13976 1-671): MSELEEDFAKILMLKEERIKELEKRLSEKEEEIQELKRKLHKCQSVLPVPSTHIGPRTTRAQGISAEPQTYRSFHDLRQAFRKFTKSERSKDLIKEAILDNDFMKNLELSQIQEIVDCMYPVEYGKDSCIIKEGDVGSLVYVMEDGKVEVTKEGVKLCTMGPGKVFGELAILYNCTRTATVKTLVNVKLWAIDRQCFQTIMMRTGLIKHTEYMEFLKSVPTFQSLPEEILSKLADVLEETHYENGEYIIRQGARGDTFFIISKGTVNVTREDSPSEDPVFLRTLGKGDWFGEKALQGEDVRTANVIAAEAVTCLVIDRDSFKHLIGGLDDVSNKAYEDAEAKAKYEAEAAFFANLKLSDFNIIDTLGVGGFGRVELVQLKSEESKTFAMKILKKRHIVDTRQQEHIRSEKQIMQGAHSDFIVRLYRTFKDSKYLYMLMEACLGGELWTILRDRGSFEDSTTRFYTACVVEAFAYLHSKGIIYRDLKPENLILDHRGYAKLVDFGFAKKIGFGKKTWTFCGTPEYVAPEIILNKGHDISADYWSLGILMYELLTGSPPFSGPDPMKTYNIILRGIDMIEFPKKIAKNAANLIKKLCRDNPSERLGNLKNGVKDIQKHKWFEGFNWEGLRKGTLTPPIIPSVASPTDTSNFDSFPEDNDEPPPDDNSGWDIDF
Description: (§1) The capacity of test peptides to inhibit the activity of the kinases PKG1α, PKG1β, and Src family kinases in a cell free assay was assessed. The test peptides were amidated at their C-terminal end (indicated by “—NH2”) unless otherwise noted. Kinase activity assays were conducted by Eurofins Pharma Discovery Services UK Ltd (Dundee Technology Park, Dundee, United Kingdom) and Reaction Biology Corp. (Malvern, Pa., USA).
(§2) All test peptides are prepared to 50× final assay concentration in 100% DMSO. This working stock of the test compound is added to assay wells as the first component in the reaction, followed by the remaining components of the respective assay protocols described below. There is no pre-incubation step between the test peptide and the kinase prior to initiation of the reaction. The kinases are diluted in buffer (20 mM MOPS, 1 mM EDTA, 0.01% Brij-35, 5% Glycerol, 0.1% β-mercaptoethanol, 1 mg/mL BSA) prior to addition to the reaction mix.
(§3) Positive control wells contain all components of the reaction, except the test peptide of interest. However, DMSO (at a final concentration of 2%) is included in positive control wells to control for solvent effects. Negative control wells contain all components of the reaction, with a reference inhibitor (staurosporine) replacing the test peptide. This abolishes kinase activity and establishes a base-line (0% kinase activity). Kinase assay protocols (Eurofins Pharma Discovery Services UK Ltd, Dundee Technology Park, Dundee, United Kingdom) are described below. Of the Src family kinases, only the assay protocol for c-Src is shown.
(§4) PKG1α (h) is incubated with 8 mM MOPS pH 7.0, 0.2 mM EDTA, 10 μM cGMP, 200 μM peptide RRRLSFAEPG, 10 mM magnesium acetate and [γ-^33P]-ATP (specific activity approx. 500 cpm/pmol, concentration as required). The reaction is initiated by the addition of the MgATP mix. After incubation for 40 minutes at room temperature, the reaction is stopped by the addition of 3% phosphoric acid solution. A 10 μL aliquot of the reaction is then spotted onto a P30 filtermat and washed three times for 5 mins in 75 mM phosphoric acid and once in methanol prior to drying and scintillation counting.

PKG1β (h) = molecular target: T2, PKG1β (h) (Homo sapiens, UniProt Q13976); assay: PKG1β kinase activity assay, cell free; assay type: biochemical
T2 construct: purchased Eurofins Pharma Discovery Services UK Ltd (contract assay service)
T2 sequence (Q13976 1-686 isoform Q13976-2): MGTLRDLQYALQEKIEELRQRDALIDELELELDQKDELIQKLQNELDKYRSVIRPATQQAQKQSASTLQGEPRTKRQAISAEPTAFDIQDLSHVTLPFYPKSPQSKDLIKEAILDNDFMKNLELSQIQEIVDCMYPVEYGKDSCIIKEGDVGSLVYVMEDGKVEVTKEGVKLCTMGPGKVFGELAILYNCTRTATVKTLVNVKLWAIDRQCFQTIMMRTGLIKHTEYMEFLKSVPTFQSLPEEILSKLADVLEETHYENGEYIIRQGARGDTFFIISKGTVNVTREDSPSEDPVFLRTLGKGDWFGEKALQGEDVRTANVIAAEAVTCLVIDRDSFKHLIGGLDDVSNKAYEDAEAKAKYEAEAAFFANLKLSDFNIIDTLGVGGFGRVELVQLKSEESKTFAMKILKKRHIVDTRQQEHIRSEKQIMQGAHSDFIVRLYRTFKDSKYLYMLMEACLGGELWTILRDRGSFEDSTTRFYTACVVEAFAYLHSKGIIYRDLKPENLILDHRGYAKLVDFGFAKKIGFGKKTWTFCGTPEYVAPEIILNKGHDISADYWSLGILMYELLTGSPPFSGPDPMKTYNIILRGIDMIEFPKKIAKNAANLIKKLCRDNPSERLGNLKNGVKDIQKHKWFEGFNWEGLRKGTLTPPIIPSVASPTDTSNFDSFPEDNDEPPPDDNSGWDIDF
Description: as §1, §2, §3
as §4, with “PKG1b(h)” for “PKG1α (h)”, “μM” for “μM peptide”

c-Src (h) = molecular target: T3, c-Src (h) (Homo sapiens, UniProt P12931); assay: c-Src kinase activity assay, cell free; assay type: biochemical
T3 construct: purchased Eurofins Pharma Discovery Services UK Ltd (contract assay service)
Description: as §1, §2, §3
as §4, with “c-Src (h)” for “PKG1α (h)”, “EDTA, 250” for “EDTA, 10”, “μM KVEKIGEGTYGVVYK (Cdc2 peptide),” for “μM cGMP, 200 μM peptide RRRLSFAEPG,”, “mM MgAcetate” for “mM magnesium acetate”, “5 minutes” for “5 mins”

[1] = Resistance to simulated gastric fluid; assay type: in vitro ADME
Description: Test 14 Arg peptides consisting of 14 contiguous L- or D-arginine amino acids were tested for resistance to simulated gastric fluid (porcine pepsin in a HCl and NaCl solution) at a pH of 2.01 for a period of 24 hours. Negligible degradation of each peptide was observed by exposure to the simulated gastric fluid over the 24 hour test period.

[2] = cell free, 10 μM cGMP, 40 minutes at room temperature, read-out: PKG1α IC50
[3] = cell free, 10 μM cGMP, 40 minutes at room temperature, read-out: PKG1β IC50
[4] = cell free, 40 minutes at room temperature, read-out: c-Src IC50

T3 sequence (P12931 whole entry): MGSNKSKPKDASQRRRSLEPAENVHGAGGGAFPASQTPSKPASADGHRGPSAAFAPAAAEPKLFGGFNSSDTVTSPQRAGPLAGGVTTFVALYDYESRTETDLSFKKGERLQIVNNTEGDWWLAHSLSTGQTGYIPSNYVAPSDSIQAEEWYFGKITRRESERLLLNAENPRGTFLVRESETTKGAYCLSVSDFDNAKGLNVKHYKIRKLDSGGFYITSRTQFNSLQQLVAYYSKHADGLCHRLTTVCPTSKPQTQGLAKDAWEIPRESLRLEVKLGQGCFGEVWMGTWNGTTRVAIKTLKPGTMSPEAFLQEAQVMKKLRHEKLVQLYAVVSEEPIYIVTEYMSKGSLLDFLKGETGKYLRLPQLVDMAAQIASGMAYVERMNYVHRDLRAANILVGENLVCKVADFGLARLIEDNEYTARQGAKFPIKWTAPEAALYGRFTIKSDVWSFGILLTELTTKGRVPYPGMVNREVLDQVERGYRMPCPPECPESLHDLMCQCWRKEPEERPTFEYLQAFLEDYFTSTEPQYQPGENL

Compound | IC50 (PKG1α (h); [2]) [nM] | IC50 (PKG1β (h); [3]) [nM] | IC50 (c-Src (h); [4]) [nM] | IC50 (PKG1α (h)) [nM] | IC50 (PKG1β (h)) [nM] | IC50 (c-Src (h)) [nM] | other results
KKKKKKKKKK-NH2 [IK00K00, KKKKKKKKKK-NH2, reference compound] | > 1000 | > 1000 | 96 | – | – | – | –
HHHHHHHHHH-NH2 [IK00010, HHHHHHHHHH-NH2, reference compound] | > 1000 | > 1000 | > 1000 | – | – | – | –
NCCC[C@H](NC(=O)[C@H](CCCN)NC(=O)[C@H](CCCN)NC(=O)[C@H](CCCN)NC(=O)[C@H](CCCN)NC(=O)[C@H](CCCN)NC(=O)[C@H](CCCN)NC(=O)[C@H](CCCN)NC(=O)[C@H](CCCN)NC(=O)[C@@H](N)CCCN)C(N)=O [IKNOR10, OrnOrnOrnOrnOrnOrnOrnOrnOrnOrn-NH2, reference compound] (H-[Orn][Orn][Orn][Orn][Orn][Orn][Orn][Orn][Orn][Orn]-NH2; N-terminus assumed) | – | – | – | > 1000 | > 1000 | 7 | –
N=C(N)NCCC[C@H](NC(=O)[C@H](CCCNC(=N)N)NC(=O)[C@H](CCCNC(=N)N)NC(=O)[C@H](CCCNC(=N)N)NC(=O)[C@H](CCCNC(=N)N)NC(=O)[C@H](CCCNC(=N)N)NC(=O)[C@H](CCCNC(=N)N)NC(=O)[C@H](CCCNC(=N)N)NC(=O)[C@H](CCCNC(=N)N)NC(=O)[C@H](CCCNC(=N)N)NC(=O)[C@H](CCCNC(=N)N)NC(=O)[C@@H](N)CCCNC(=N)N)C(N)=O [IK01200, RRRRRRRRRRRR-NH2] | – | – | – | 8 | 7 | 6 | –
N=C(N)NCCC[C@H](NC(=O)[C@H](CCCNC(=N)N)NC(=O)[C@H](CCCNC(=N)N)NC(=O)[C@H](CCCNC(=N)N)NC(=O)[C@H](CCCNC(=N)N)NC(=O)[C@H](CCCNC(=N)N)NC(=O)[C@H](CCCNC(=N)N)NC(=O)[C@H](CCCNC(=N)N)NC(=O)[C@H](CCCNC(=N)N)NC(=O)[C@H](CCCNC(=N)N)NC(=O)[C@H](CCCNC(=N)N)NC(=O)[C@H](CCCNC(=N)N)NC(=O)[C@H](CCCNC(=N)N)NC(=O)[C@@H](N)CCCNC(=N)N)C(=O)O [IK0140H, RRRRRRRRRRRRRR] | – | – | – | 7 | 7 | > 1000 | –
N=C(N)NCCC[C@@H](N)C(=O)N[C@H](CCCNC(=N)N)C(=O)N[C@H](CCCNC(=N)N)C(=O)N[C@H](CCCNC(=N)N)C(=O)N[C@H](CCCNC(=N)N)C(=O)N[C@H](CCCNC(=N)N)C(=O)N[C@H](CCCNC(=N)N)C(=O)N[C@H](CCCNC(=N)N)C(=O)N[C@H](CCCNC(=N)N)C(=O)N[C@H](CCCNC(=N)N)C(=O)N[C@H](CCCNC(=N)N)C(=O)N[C@H](CCCNC(=N)N)C(=O)N[C@H](CCCNC(=N)N)C(=O)N[C@H](CCCNC(=N)N)C(N)=O [IKD01400, rrrrrrrrrrrrrr-NH2] | – | – | – | 11 | 10 | 6 | remaining at 1 h ([1]; pig, simulated gastric fluid with porcine pepsin, simulated gastric fluid pH 2.01, 1 hr, read-out: % of intact peptide observed): 98.9%; remaining at 4 h ([1]; pig, simulated gastric fluid with porcine pepsin, simulated gastric fluid pH 2.01, 4 hrs, read-out: % of intact peptide observed): 98.7%; remaining at 24 h ([1]; pig, simulated gastric fluid with porcine pepsin, simulated gastric fluid pH 2.01, 24 hrs, read-out: % of intact peptide observed): 97.5%; % of intact peptide observed ([1]; simulated gastric fluid pH 2.01, time 0): 98.79%
N=C(N)NCCC[C@H](NC(=O)[C@H](CCCNC(=N)N)NC(=O)[C@H](CCCNC(=N)N)NC(=O)[C@H](CCCNC(=N)N)NC(=O)[C@H](CCCNC(=N)N)NC(=O)[C@H](CCCNC(=N)N)NC(=O)[C@H](CCCNC(=N)N)NC(=O)[C@H](CCCNC(=N)N)NC(=O)[C@H](CCCNC(=N)N)NC(=O)[C@@H](N)CCCNC(=N)N)C(N)=O [IK00100, RRRRRRRRRR-NH2] | 16 | 9 | 7 | – | – | – | –

The next lines start with results.

IC50 (PKG1α (h); [2]) [nM] | IC50 (PKG1β (h); [3]) [nM] | IC50 (c-Src (h); [4]) [nM] | Compound | IC50 (PKG1α (h)) [nM] | IC50 (PKG1β (h)) [nM] | IC50 (c-Src (h)) [nM] | other results
75 | 55 | 26 | N=C(N)NCCC[C@H](NC(=O)[C@H](CCCNC(=N)N)NC(=O)[C@H](CCCNC(=N)N)NC(=O)[C@H](CCCNC(=N)N)NC(=O)[C@H](CCCNC(=N)N)NC(=O)[C@H](CCCNC(=N)N)NC(=O)[C@H](CCCNC(=N)N)NC(=O)[C@@H](N)CCCNC(=N)N)C(N)=O [IK00800, RRRRRRRR-NH2] | – | – | – | –
6 | 4 | 4 | RRRRRRRRRRRRRRRR-NH2 [IK01600, RRRRRRRRRRRRRRRR-NH2] | – | – | – | –
33.5 | 22 | 4 | N=C(N)NCCC[C@H](NC(=O)[C@H](CCCNC(=N)N)NC(=O)[C@H](CCCNC(=N)N)NC(=O)[C@H](CCCNC(=N)N)NC(=O)[C@H](CCCNC(=N)N)NC(=O)[C@H](CCCNC(=N)N)NC(=O)[C@H](CCCNC(=N)N)NC(=O)[C@H](CCCNC(=N)N)NC(=O)[C@@H](N)CCCNC(=N)N)C(N)=O [IK00900, RRRRRRRRR-NH2] | – | – | – | –
6 | 6 | – | RRRRRRRRRRRRRRRRRRRR-NH2 [IK00200] | – | – | – | –
> 1000 | 457 | 100 | N=C(N)NCCC[C@H](NC(=O)[C@H](CCCNC(=N)N)NC(=O)[C@H](CCCNC(=N)N)NC(=O)[C@H](CCCNC(=N)N)NC(=O)[C@H](CCCNC(=N)N)NC(=O)[C@@H](N)CCCNC(=N)N)C(N)=O [IK00600, RRRRRR-NH2] | – | – | – | –
